The compounds below were run against T1, Axl (Homo sapiens, UniProt P30530) (assay: Cellular Axl inhibition ELISA (p-Axl, Gas6-induced) using H1299 cells). Settings: read-out: Cellular Axl activity by H1299 Elisa (IC50).
T1 sequence (P30530 26-894): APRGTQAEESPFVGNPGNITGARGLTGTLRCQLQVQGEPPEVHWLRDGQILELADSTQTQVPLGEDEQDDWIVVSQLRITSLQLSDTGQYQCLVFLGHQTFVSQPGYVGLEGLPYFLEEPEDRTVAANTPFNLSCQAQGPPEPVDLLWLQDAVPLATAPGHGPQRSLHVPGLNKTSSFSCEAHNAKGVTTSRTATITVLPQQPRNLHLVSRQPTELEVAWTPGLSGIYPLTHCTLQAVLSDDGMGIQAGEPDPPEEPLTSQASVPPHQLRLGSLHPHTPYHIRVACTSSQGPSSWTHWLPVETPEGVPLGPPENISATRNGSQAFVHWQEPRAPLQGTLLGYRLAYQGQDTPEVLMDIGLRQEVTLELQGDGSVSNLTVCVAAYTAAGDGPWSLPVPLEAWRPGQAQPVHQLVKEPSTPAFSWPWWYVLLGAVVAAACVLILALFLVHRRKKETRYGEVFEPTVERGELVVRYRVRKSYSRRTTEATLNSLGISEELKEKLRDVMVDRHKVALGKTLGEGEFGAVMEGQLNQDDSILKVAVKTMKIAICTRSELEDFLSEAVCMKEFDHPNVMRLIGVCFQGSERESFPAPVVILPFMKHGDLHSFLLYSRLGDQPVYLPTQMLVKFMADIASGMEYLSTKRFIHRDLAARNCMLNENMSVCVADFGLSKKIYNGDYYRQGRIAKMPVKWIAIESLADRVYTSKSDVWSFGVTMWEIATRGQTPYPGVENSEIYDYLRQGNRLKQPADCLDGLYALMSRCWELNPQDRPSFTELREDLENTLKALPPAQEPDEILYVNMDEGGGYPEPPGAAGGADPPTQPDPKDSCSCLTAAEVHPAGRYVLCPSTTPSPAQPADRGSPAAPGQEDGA
Format: cell-based
Set-up: especially H1299 cell endogenously expresses Axl; endogenous in cells; host or cells: H1299
Procedure, shortened: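 H1299 cells, seeded overnight, exposed 24 h at 37 °C to 10-point 3-fold compound dilutions, then stimulated with 200 ng/ml human Gas6 (final) for 1 h. Lysates assayed for p-Axl by sandwich ELISA with HRP/TMB, absorbance 450 nm; IC50 by sigmoidal dose-response fit.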

IC50 [nM]	Structure (SMILES)
< 500	CCn1nc(C(=O)Nc2ccc(Oc3ccnc4cc(OC)c(OC)cc34)cn2)c(OCC(F)(F)F)c1C [Compound 1]
< 500	COc1cc2nccc(Oc3ccc(NC(=O)c4nn(C(C)C)c(C)c4OCC(F)(F)F)nc3)c2cc1OC [Compound 2]
< 500	COc1cc2nccc(Oc3ccc(NC(=O)c4nn(C5CC5)c(C(C)=O)c4OCC(F)(F)F)nc3)c2cc1OC [Compound 3]
< 500	COc1cc2nccc(Oc3ccc(NC(=O)c4nn(C5CCOC5)cc4OCC(F)(F)F)nc3)c2cc1OC (stereo not shown) [Compound 13]
< 500	CCCn1cc(OCCF)c(C(=O)Nc2ccc(Oc3ccnc4cc(OC)c(OC)cc34)cn2)n1 [Compound 14]
≥ 1000	CCCn1cc(OCCC(O)CO)c(C(=O)Nc2ccc(Oc3ccnc4cc(OC)c(OC)cc34)cn2)n1 (stereo not shown) [Compound 15]
< 500	COc1cc2nccc(Oc3ccc(NC(=O)c4nn(CC(C)O)cc4OCC(F)(F)F)nc3)c2cc1OC (stereo not shown) [Compound 17]
< 500	COc1cc2nccc(Oc3ccc(NC(=O)c4nn(CCCO)cc4OCC(F)(F)F)nc3)c2cc1OC [Compound 18]
< 500	COc1cc2nccc(Oc3ccc(NC(=O)c4nn(CC(C)=O)cc4OCC(F)(F)F)nc3)c2cc1OC [Compound 19]
< 500	CCC(=O)n1cc(OCC(F)(F)F)c(C(=O)Nc2ccc(Oc3ccnc4cc(OC)c(OC)cc34)cn2)n1 [Compound 20]
< 500	COc1cc2nccc(Oc3ccc(NC(=O)c4nn(CC(C)C)cc4OCC(F)(F)F)nc3)c2cc1OC [Compound 21]
< 500	COc1cc2nccc(Oc3ccc(NC(=O)c4nn(C(C)(C)C)cc4OCC(F)(F)F)nc3)c2cc1OC [Compound 22]
< 500	CCCn1cc(NCC(F)(F)F)c(C(=O)Nc2ccc(Oc3ccnc4cc(OC)c(OC)cc34)cn2)n1 [Compound 23]
< 500	COc1cc2nccc(Oc3ccc(NC(=O)c4nn(C5CCC5)cc4OCC(F)(F)F)nc3)c2cc1OC [Compound 24]
< 500	CCCn1cc(OCC(F)(F)F)c(C(=O)Nc2ccc(Oc3ccnc4cc(OC)c(OC)cc34)c(F)c2)n1 [Compound 25]
< 500	CCCn1cc(OCC(F)(F)F)c(C(=O)Nc2ccc(Oc3ccnc4cc(OC)c(OC)cc34)c(C)c2)n1 [Compound 26]
< 500	CCCn1cc(OCC(F)(F)F)c(C(=O)Nc2ccc(Oc3ccnc4cc(OC)c(OC)cc34)cc2C)n1 [Compound 27]
< 500	CCCn1cc(OCC(F)(F)F)c(C(=O)Nc2ccc(Oc3ccnc4cc(OC)c(OC)cc34)cc2F)n1 [Compound 28]
< 500	COc1cc2nccc(Oc3ccc(NC(=O)c4nn(C[C@@H](C)O)cc4OCC(F)(F)F)nc3)c2cc1OC [Compound 29]
< 500	COc1cc2nccc(Oc3ccc(NC(=O)c4nn(C[C@H](C)O)cc4OCC(F)(F)F)nc3)c2cc1OC [Compound 30]
< 500	CCCn1cc(OCCC(F)(F)F)c(C(=O)Nc2ccc(Oc3ccnc4cc(OC)c(OC)cc34)cn2)n1 [Compound 31]

IC50 [nM]	Structure (SMILES)
< 500	CCCn1cc(OCC(F)(F)F)c(C(=O)Nc2ccc(Oc3ccnc4cc(OC)c(OC)cc34)nn2)n1 [Compound 32]
< 500	COc1cc2nccc(Oc3ccc(NC(=O)c4nn(C)cc4OCC(F)(F)F)nc3)c2cc1OC [Compound 33]
≥ 1000	CCCn1cc(N(C)CC2CCOCC2)c(C(=O)Nc2ccc(Oc3ccnc4cc(OC)c(OC)cc34)cn2)n1 [Compound 34]
≥ 1000	CCCn1cc(OC(C)C)c(C(=O)Nc2ccc(Oc3ccnc4cc(OC)c(OC(F)(F)F)cc34)c(F)c2)n1 [Compound 35]
< 500	CCCCn1cc(OCC(F)(F)F)c(C(=O)Nc2ccc(Oc3ccnc4cc(OC)c(OC)cc34)cn2)n1 [Compound 36]
≥ 1000	COc1cc2nccc(Oc3ccc(NC(=O)c4nn(C)cc4OCC(F)(F)F)cc3C)c2cc1OC [Compound 37]
< 500	CCCn1cc(OCC(F)(F)F)c(C(=O)Nc2ccc(Oc3ccnc4cc(OC)c(OC)cc34)cc2)n1 [Compound 38]
< 500	COc1cc2nccc(Oc3ccc(NC(=O)c4nn(CCC#N)cc4OCC(F)(F)F)nc3)c2cc1OC [Compound 39]
< 500	COc1cc2nccc(Oc3ccc(NC(=O)c4nn(C5CCCC5)cc4OCC(F)(F)F)nc3)c2cc1OC [Compound 40]
< 500	COc1cc2nccc(Oc3ccc(NC(=O)c4nn(CC5CC5)cc4OCC(F)(F)F)nc3)c2cc1OC [Compound 41]
< 500	COc1cc2nccc(Oc3ccc(NC(=O)c4nn(CC5CCC5)cc4OCC(F)(F)F)nc3)c2cc1OC [Compound 42]
< 500	COc1cc2nccc(Oc3ccc(NC(=O)c4nn(CC5CCCCC5)cc4OCC(F)(F)F)nc3)c2cc1OC [Compound 43]
< 500	COc1cc2nccc(Oc3ccc(NC(=O)c4nn(CC5CCOC5)cc4OCC(F)(F)F)nc3)c2cc1OC (stereo not shown) [Compound 44]
500 to 1000	COc1cc2nccc(Oc3ccc(NC(=O)c4nn(C)cc4OCC(F)(F)F)c(F)c3)c2cc1OC [Compound 45]
< 500	COc1cc2nccc(Oc3ccc(NC(=O)c4nn(CCO)cc4OCC(F)(F)F)c(F)c3)c2cc1OC [Compound 46]
< 500	COc1cc2nccc(Oc3ccc(NC(=O)c4nn(C5CCCC5)cc4OCC(F)(F)F)c(F)c3)c2cc1OC [Compound 47]
< 500	COc1cc2nccc(Oc3ccc(NC(=O)c4nn(CC(C)C)cc4OCC(F)(F)F)c(F)c3)c2cc1OC [Compound 48]
< 500	COCCn1cc(OCC(F)(F)F)c(C(=O)Nc2ccc(Oc3ccnc4cc(OC)c(OC)cc34)cc2F)n1 [Compound 49]
< 500	COc1cc2nccc(Oc3ccc(NC(=O)c4nn(C)cc4OCC(F)(F)F)cc3F)c2cc1OC [Compound 50]
< 500	COc1cc2nccc(Oc3ccc(NC(=O)c4nn(CCO)cc4OCC(F)(F)F)cc3F)c2cc1OC [Compound 51]
< 500	COc1cc2nccc(Oc3ccc(NC(=O)c4nn(C5CCCC5)cc4OCC(F)(F)F)cc3F)c2cc1OC [Compound 52]

IC50 [nM]	Structure (SMILES)
< 500	COc1cc2nccc(Oc3ccc(NC(=O)c4nn(CC(C)C)cc4OCC(F)(F)F)cc3F)c2cc1OC [Compound 53]
< 500	COCCn1cc(OCC(F)(F)F)c(C(=O)Nc2ccc(Oc3ccnc4cc(OC)c(OC)cc34)c(F)c2)n1 [Compound 54]
< 500	COc1cc2nccc(Oc3ccc(NC(=O)c4nn(C5CCOC5)cc4OCC(F)(F)F)cc3F)c2cc1OC (stereo not shown) [Compound 55]
≥ 1000	COc1cc2nccc(Oc3ccc(NC(=O)c4nn(CCO)cc4OCC(F)(F)F)cc3C)c2cc1OC [Compound 56]
< 500	COc1cc2nccc(Oc3ccc(NC(=O)c4nn(C5CCCC5)cc4OCC(F)(F)F)cc3C)c2cc1OC [Compound 57]
< 500	COc1cc2nccc(Oc3ccc(NC(=O)c4nn(CC(C)C)cc4OCC(F)(F)F)cc3C)c2cc1OC [Compound 58]
< 500	COc1cc2nccc(Oc3ccc(NC(=O)c4nn(CCO)cc4OCC(F)(F)F)cc3)c2cc1OC [Compound 59]
< 500	COc1cc2nccc(Oc3ccc(NC(=O)c4nn(C5CCCC5)cc4OCC(F)(F)F)cc3)c2cc1OC [Compound 60]
< 500	COCCn1cc(OCC(F)(F)F)c(C(=O)Nc2ccc(Oc3ccnc4cc(OC)c(OC)cc34)cc2)n1 [Compound 61]
< 500	COc1cc2nccc(Oc3ccc(NC(=O)c4nn(C5CCOC5)cc4OCC(F)(F)F)cc3)c2cc1OC (stereo not shown) [Compound 62]
< 500	COc1cc2nccc(Oc3ccc(NC(=O)c4nn(CC(C)N)cc4OCC(F)(F)F)nc3)c2cc1OC (stereo not shown) [Compound 63]
< 500	COc1cc2nccc(Oc3ccc(NC(=O)c4nn(CC(C)(F)F)cc4OCC(F)(F)F)nc3)c2cc1OC [Compound 64]
< 500	COc1cc2nccc(Oc3ccc(NC(=O)c4nn(CCOC5CCC5)cc4OCC(F)(F)F)nc3)c2cc1OC [Compound 65]
< 500	COc1cc2nccc(Oc3ccc(NC(=O)c4nn(C5COC5)cc4OCC(F)(F)F)nc3)c2cc1OC [Compound 66]
< 500	COc1cc2nccc(Oc3ccc(NC(=O)c4nn(CCO)cc4OCC(F)(F)F)nc3)c2cc1OC [Compound 67]
< 500	COc1cc2nccc(Oc3ccc(NC(=O)c4nn(CCCN)cc4OCC(F)(F)F)nc3)c2cc1OC [Compound 68]
< 500	COc1cc2nccc(Oc3ccc(NC(=O)c4nn(C5CCCCC5)cc4OCC(F)(F)F)nc3)c2cc1OC [Compound 69]
< 500	COc1cc2nccc(Oc3ccc(NC(=O)c4nn(C5CCNC5)cc4OCC(F)(F)F)nc3)c2cc1OC (stereo not shown) [Compound 70]
< 500	COc1cc2nccc(Oc3ccc(NC(=O)c4nn(CC5CCCC5)cc4OCC(F)(F)F)nc3)c2cc1OC [Compound 71]
